Assay results: patent publication US20260042764A1, “COMPOSITIONS AND METHODS FOR INHIBITION OF KRAS” (TheRas, Inc., priority 2022, published 2026)

The molecules below were run against T1, Avi-KRAS G12D (1-169) GppNHp/RAF1 RBD-3xFLAG (52-151) (Homo sapiens, UniProt P01116, G12D) (assay: Raf1-KRAS G12D-GppNHP disruption HTRF assay (Biological Example 1)). Details: KRAS G12D, GppNHp-loaded; Table 11.
T1 construct: Avi-KRAS G12D (1-169)
T1 sequence (P01116 1-169 isoform P01116-2 G12D): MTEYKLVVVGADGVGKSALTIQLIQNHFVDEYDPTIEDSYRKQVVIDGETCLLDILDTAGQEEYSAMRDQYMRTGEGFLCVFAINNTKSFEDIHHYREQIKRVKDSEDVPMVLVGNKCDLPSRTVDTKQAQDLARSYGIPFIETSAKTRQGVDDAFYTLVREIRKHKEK
Type: binding
How it was run: (§1)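 Read-out is HTRF signal of the KRAS–RAF1 RBD complex, reported as percentage of activity relative to DMSO (100%). Protein mix and detection reagents each incubated 1 h at room temperature with 700 rpm shaking. Buffer: 50 mM Tris pH 7.5, 100 mM NaCl, 5 mM MgCl2, 0.1% BSA, 0.01% Tween, 10% DMSO.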
For `N#Cc1c(N)sc2c(F)ccc(-c3c(C(F)(F)F)cc4c(N5CCC(F)(F)C5)nc(OC[C@@]56CCCN5C[C@H](F)C6)nc4c3F)c12` [Compound 159], the IC50 was 100 to 1000 nM.
`CN(CC(F)F)c1nc(OC[C@@]23CCCN2C[C@H](F)C3)nc2c(F)c(-c3ccc(F)c4sc(N)c(C#N)c34)c(C(F)(F)F)cc12` [Compound 164] was tested, and the IC50 was 100 to 1000 nM.
`CCN(CCC#N)c1nc(OC[C@@]23CCCN2C[C@H](F)C3)nc2c(F)c(-c3ccc(F)c4sc(N)c(C#N)c34)c(C(F)(F)F)cc12` [Compound 166] was tested, and the IC50 was 100 to 1000 nM.
Work on `N#Cc1c(N)sc2c(F)ccc(-c3c(C(F)(F)F)cc4c(N5CC[C@@H]5CO)nc(OC[C@@]56CCCN5C[C@H](F)C6)nc4c3F)c12` [Compound 168] yielded an IC50 of under 100 nM.
Molecule `N#Cc1c(N)sc2c(F)ccc(-c3c(C(F)(F)F)cc4c(N5CC[C@H]5CO)nc(OC[C@@]56CCCN5C[C@H](F)C6)nc4c3F)c12` [Compound 169] has an IC50 of 100 to 1000 nM.
`CN(c1nc(OC[C@@]23CCCN2C[C@H](F)C3)nc2c(F)c(-c3ccc(F)c4sc(N)c(C#N)c34)c(C(F)(F)F)cc12)C1(CO)CC1` [Compound 170] was tested, and the IC50 was 100 to 1000 nM.
`N#Cc1c(N)sc2c(F)ccc(-c3c(C(F)(F)F)cc4c(N(CCO)C5CC5)nc(OC[C@@]56CCCN5C[C@H](F)C6)nc4c3F)c12` [Compound 171] showed an IC50 of 100 to 1000 nM.

These molecules were tested against T2, Avi-KRAS G12R (1-169) GppNHp/RAF1 RBD-3xFLAG (52-151) (Homo sapiens, UniProt P01116, G12R) (assay: Raf1-KRAS G12R-GppNHP disruption HTRF assay (Biological Example 1)). Details: KRAS G12R, GppNHp-loaded; Table 11.
T2 construct: Avi-KRAS G12R (1-169)
T2 sequence (P01116 1-169 isoform P01116-2 G12R): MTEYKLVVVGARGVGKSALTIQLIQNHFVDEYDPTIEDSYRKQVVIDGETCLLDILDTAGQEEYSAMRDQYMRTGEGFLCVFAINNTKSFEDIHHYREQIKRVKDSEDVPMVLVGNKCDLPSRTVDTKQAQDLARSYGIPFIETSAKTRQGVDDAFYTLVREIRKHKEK
Type: binding
How it was run: as §1
`N#Cc1c(N)sc2c(F)ccc(-c3c(C(F)(F)F)cc4c(N5CCC(F)(F)C5)nc(OC[C@@]56CCCN5C[C@H](F)C6)nc4c3F)c12` [Compound 159] gave an IC50 of 100 to 1000 nM.
`CN(CC(F)F)c1nc(OC[C@@]23CCCN2C[C@H](F)C3)nc2c(F)c(-c3ccc(F)c4sc(N)c(C#N)c34)c(C(F)(F)F)cc12` [Compound 164] gave an IC50 of 100 to 1000 nM.
Molecule `CCN(CCC#N)c1nc(OC[C@@]23CCCN2C[C@H](F)C3)nc2c(F)c(-c3ccc(F)c4sc(N)c(C#N)c34)c(C(F)(F)F)cc12` [Compound 166] has an IC50 of 100 to 1000 nM.
Molecule `N#Cc1c(N)sc2c(F)ccc(-c3c(C(F)(F)F)cc4c(N5CC[C@@H]5CO)nc(OC[C@@]56CCCN5C[C@H](F)C6)nc4c3F)c12` [Compound 168] has an IC50 of 100 to 1000 nM.
`N#Cc1c(N)sc2c(F)ccc(-c3c(C(F)(F)F)cc4c(N5CC[C@H]5CO)nc(OC[C@@]56CCCN5C[C@H](F)C6)nc4c3F)c12` [Compound 169] showed an IC50 of 100 to 1000 nM.
`CN(c1nc(OC[C@@]23CCCN2C[C@H](F)C3)nc2c(F)c(-c3ccc(F)c4sc(N)c(C#N)c34)c(C(F)(F)F)cc12)C1(CO)CC1` [Compound 170] gave an IC50 of 100 to 1000 nM.
Work on `N#Cc1c(N)sc2c(F)ccc(-c3c(C(F)(F)F)cc4c(N(CCO)C5CC5)nc(OC[C@@]56CCCN5C[C@H](F)C6)nc4c3F)c12` [Compound 171] yielded an IC50 of 100 to 1000 nM.

What follows are molecules tested against T3, Avi-KRAS G12V (1-169) GppNHp/RAF1 RBD-3xFLAG (52-151) (Homo sapiens, UniProt P01116, G12V) (assay: Raf1-KRAS G12V-GppNHP disruption HTRF assay (Biological Example 1)). Details: KRAS G12V, GppNHp-loaded; Table 11.
T3 construct: Avi-KRAS G12V (1-169)
T3 sequence (P01116 1-169 isoform P01116-2 G12V): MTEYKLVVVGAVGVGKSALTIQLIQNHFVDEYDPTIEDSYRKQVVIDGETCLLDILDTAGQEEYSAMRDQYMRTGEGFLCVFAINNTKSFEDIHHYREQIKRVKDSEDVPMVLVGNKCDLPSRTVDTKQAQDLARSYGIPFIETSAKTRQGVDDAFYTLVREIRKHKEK
Type: binding
How it was run: as §1
`N#Cc1c(N)sc2c(F)ccc(-c3c(C(F)(F)F)cc4c(N5CCC(F)(F)C5)nc(OC[C@@]56CCCN5C[C@H](F)C6)nc4c3F)c12` [Compound 159] gave an IC50 of 1000 to 10000 nM.
For `CN(CC(F)F)c1nc(OC[C@@]23CCCN2C[C@H](F)C3)nc2c(F)c(-c3ccc(F)c4sc(N)c(C#N)c34)c(C(F)(F)F)cc12` [Compound 164], the IC50 was 100 to 1000 nM.
Molecule `CCN(CCC#N)c1nc(OC[C@@]23CCCN2C[C@H](F)C3)nc2c(F)c(-c3ccc(F)c4sc(N)c(C#N)c34)c(C(F)(F)F)cc12` [Compound 166] has an IC50 of 100 to 1000 nM.
`N#Cc1c(N)sc2c(F)ccc(-c3c(C(F)(F)F)cc4c(N5CC[C@@H]5CO)nc(OC[C@@]56CCCN5C[C@H](F)C6)nc4c3F)c12` [Compound 168] gave an IC50 of 100 to 1000 nM.
In the case of `N#Cc1c(N)sc2c(F)ccc(-c3c(C(F)(F)F)cc4c(N5CC[C@H]5CO)nc(OC[C@@]56CCCN5C[C@H](F)C6)nc4c3F)c12` [Compound 169], the IC50 is reported as 100 to 1000 nM.
`CN(c1nc(OC[C@@]23CCCN2C[C@H](F)C3)nc2c(F)c(-c3ccc(F)c4sc(N)c(C#N)c34)c(C(F)(F)F)cc12)C1(CO)CC1` [Compound 170] showed an IC50 of 100 to 1000 nM.
Work on `N#Cc1c(N)sc2c(F)ccc(-c3c(C(F)(F)F)cc4c(N(CCO)C5CC5)nc(OC[C@@]56CCCN5C[C@H](F)C6)nc4c3F)c12` [Compound 171] yielded an IC50 of 100 to 1000 nM.

Each molecule was assayed against T4, Avi-KRAS WT (1-169) GppNHp/RAF1 RBD-3xFLAG (52-151) (Homo sapiens, UniProt P01116) (assay: Raf1-KRAS WT-GppNHP disruption HTRF assay (Biological Example 1)). Details: KRAS WT, GppNHp-loaded; Table 11.
T4 construct: Avi-KRAS WT (1-169)
T4 sequence (P01116 1-169 isoform P01116-2): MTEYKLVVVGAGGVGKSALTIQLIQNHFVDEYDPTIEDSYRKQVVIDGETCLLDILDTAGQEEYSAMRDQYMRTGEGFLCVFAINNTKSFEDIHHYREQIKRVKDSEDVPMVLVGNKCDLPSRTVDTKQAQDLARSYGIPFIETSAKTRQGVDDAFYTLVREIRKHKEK
Type: binding
How it was run: as §1
Work on `N#Cc1c(N)sc2c(F)ccc(-c3c(C(F)(F)F)cc4c(N5CCC(F)(F)C5)nc(OC[C@@]56CCCN5C[C@H](F)C6)nc4c3F)c12` [Compound 159] yielded an IC50 of 100 to 1000 nM.
`CN(CC(F)F)c1nc(OC[C@@]23CCCN2C[C@H](F)C3)nc2c(F)c(-c3ccc(F)c4sc(N)c(C#N)c34)c(C(F)(F)F)cc12` [Compound 164] showed an IC50 of 100 to 1000 nM.
Molecule `CCN(CCC#N)c1nc(OC[C@@]23CCCN2C[C@H](F)C3)nc2c(F)c(-c3ccc(F)c4sc(N)c(C#N)c34)c(C(F)(F)F)cc12` [Compound 166] has an IC50 of 100 to 1000 nM.
`N#Cc1c(N)sc2c(F)ccc(-c3c(C(F)(F)F)cc4c(N5CC[C@@H]5CO)nc(OC[C@@]56CCCN5C[C@H](F)C6)nc4c3F)c12` [Compound 168] gave an IC50 of under 100 nM.
With `N#Cc1c(N)sc2c(F)ccc(-c3c(C(F)(F)F)cc4c(N5CC[C@H]5CO)nc(OC[C@@]56CCCN5C[C@H](F)C6)nc4c3F)c12` [Compound 169] the IC50 was 100 to 1000 nM.
Work on `CN(c1nc(OC[C@@]23CCCN2C[C@H](F)C3)nc2c(F)c(-c3ccc(F)c4sc(N)c(C#N)c34)c(C(F)(F)F)cc12)C1(CO)CC1` [Compound 170] yielded an IC50 of 100 to 1000 nM.
With `N#Cc1c(N)sc2c(F)ccc(-c3c(C(F)(F)F)cc4c(N(CCO)C5CC5)nc(OC[C@@]56CCCN5C[C@H](F)C6)nc4c3F)c12` [Compound 171] the IC50 was 100 to 1000 nM.

What follows are molecules tested on GP2d cells (KRAS G12D) (assay: Cell-based pERK HTRF assay in GP2d cell (Biological Example 2)). Details: GP2d, GP2d (KRAS G12D) cells, pERK HTRF.
How it was run: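 Cells grown in DMEM with 10% FBS were exposed to compound for 60 min at 0.25% DMSO, using a 9-point half-log series starting at 1 μM or 100 nM. Lysates were then mixed with d2 and Eu cryptate antibodies for 4–24 h at room temperature, and pERK was read by HTRF.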
For `N#Cc1c(N)sc2c(F)ccc(-c3c(C(F)(F)F)cc4c(N5CCC(F)(F)C5)nc(OC[C@@]56CCCN5C[C@H](F)C6)nc4c3F)c12` [Compound 159], the IC50 was under 100 nM.
In the case of `CN(CC(F)F)c1nc(OC[C@@]23CCCN2C[C@H](F)C3)nc2c(F)c(-c3ccc(F)c4sc(N)c(C#N)c34)c(C(F)(F)F)cc12` [Compound 164], the IC50 is reported as under 100 nM.
Molecule `CCN(CCC#N)c1nc(OC[C@@]23CCCN2C[C@H](F)C3)nc2c(F)c(-c3ccc(F)c4sc(N)c(C#N)c34)c(C(F)(F)F)cc12` [Compound 166] has an IC50 of under 100 nM.
Molecule `N#Cc1c(N)sc2c(F)ccc(-c3c(C(F)(F)F)cc4c(N5CC[C@@H]5CO)nc(OC[C@@]56CCCN5C[C@H](F)C6)nc4c3F)c12` [Compound 168] has an IC50 of under 100 nM.
With `N#Cc1c(N)sc2c(F)ccc(-c3c(C(F)(F)F)cc4c(N5CC[C@H]5CO)nc(OC[C@@]56CCCN5C[C@H](F)C6)nc4c3F)c12` [Compound 169] the IC50 was under 100 nM.
In the case of `CN(c1nc(OC[C@@]23CCCN2C[C@H](F)C3)nc2c(F)c(-c3ccc(F)c4sc(N)c(C#N)c34)c(C(F)(F)F)cc12)C1(CO)CC1` [Compound 170], the IC50 is reported as under 100 nM.
`N#Cc1c(N)sc2c(F)ccc(-c3c(C(F)(F)F)cc4c(N(CCO)C5CC5)nc(OC[C@@]56CCCN5C[C@H](F)C6)nc4c3F)c12` [Compound 171] showed an IC50 of under 100 nM.
